Laboratory results reported in ChEMBL document CHEMBL6134828, “Discovery, synthesis, and biological mechanism evaluation of novel quinoline derivatives as potent NLRP3 inhibitors” (Eur J Med Chem, 2025).
Activity calls are given as the source filed them. The rule behind the calls is not given here.

Tests used:
[1] = molecular target: NACHT, LRR and PYD domains-containing protein 3 (Mus musculus, UniProt Q8R4B8); experiment: Inhibition of NLRP3 in mouse J774.A1 cells assessed as reduction IL-1beta release by ELISA; type: cell-based
J774.A1 [2] = experiment: Cytotoxicity against mouse J774.A1 cells at 0.4 to 6.4 uM incubated for 24 hrs by CCK-8 assay; type: toxicity, cell-based; conditions: j774.a1, 24 h, dose 0.4-6.4 µM
J774.A1 [3] = experiment: Effect on p65 level in LPS-induced mouse J774.A1 cells at 0.2 to 3.2 uM pre-incubated with compound for 2 hrs followed by LPS-induction and measured after 5 hrs by Western blot analysis; type: functional, cell-based; conditions: dose 0.2-3.2 µM, time 7.0 hrs
Mus musculus [4] = experiment: Antiinflammatory activity against DSS-induced ulcerative colitis male C57BL/6 mouse model assessed as amelioration of epithelial damage in colonic tissue at 7.5 to 30 mg/kg administered via oral gavage for 4 days; type: functional, organism-based; conditions: dose 7.5-30 mg/kg, time 4.0 day
[5] = molecular target: Nlrp3/Pycard (Mus musculus) (UniProt Q8R4B8+Q9EPB4); experiment: Inhibition of NLRP3/ASC protein-protein interaction in LPS/nigericin-induced mouse J774.A1 cells at 3 uM by coimmunoprecipitation analysis; type: cell-based
[6] = molecular target: NACHT, LRR and PYD domains-containing protein 3 (Mus musculus) (UniProt Q8R4B8); experiment: Inhibition of NLRP3 inflammasome activation in LPS/nigericin-primed mouse BMDM cells assessed as inhibition of ASC speck formation incubated for 1 hr by DAPI staining based immunofluorescence analysis; type: cell-based
Mus musculus [7] = experiment: Antiinflammatory activity against DSS-induced ulcerative colitis male C57BL/6 mouse model assessed as reduction in cleaved GSDMD level in colonic tissue at 7.5 to 30 mg/kg administered via oral gavage for 4 days by Western blot analysis; type: functional, organism-based; conditions: dose 7.5-30 mg/kg, time 4.0 day
Mus musculus [8] = experiment: Antiinflammatory activity against DSS-induced ulcerative colitis male C57BL/6 mouse model assessed as amelioration of crypt loss in colonic tissue at 7.5 to 30 mg/kg administered via oral gavage for 4 days; type: functional, organism-based; conditions: dose 7.5-30 mg/kg, time 4.0 day
[9] = molecular target: T1, Apoptosis-associated speck-like protein containing a CARD (Mus musculus) (UniProt Q9EPB4); experiment: Inhibition of LPS/nigericin-induced ASC oligomerization in mouse J774.A1 cells at 0.8 to 3.2 uM by immunoblot analysis; type: cell-based; conditions: dose 0.8-3.2 µM
T1 sequence (whole entry): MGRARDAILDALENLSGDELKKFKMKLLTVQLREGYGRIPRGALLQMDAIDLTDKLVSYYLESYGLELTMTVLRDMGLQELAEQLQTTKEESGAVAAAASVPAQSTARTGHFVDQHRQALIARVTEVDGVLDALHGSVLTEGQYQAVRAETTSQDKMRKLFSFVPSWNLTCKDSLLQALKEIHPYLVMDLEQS

[10] = molecular target: NACHT, LRR and PYD domains-containing protein 3 (Mus musculus) (UniProt Q8R4B8); experiment: Inhibition of LPS/nigericin-induced NLRP3 oligomerization in mouse J774.A1 cells at 3.2 uM by SDS-PAGE analysis; type: cell-based
Mus musculus [11] = experiment: Antiinflammatory activity against DSS-induced ulcerative colitis male C57BL/6 mouse model assessed as reduction in fecal blood index at 7.5 to 30 mg/kg administered via oral gavage for 4 days; type: functional, organism-based; conditions: dose 7.5-30 mg/kg, time 4.0 day
Mus musculus [12] = experiment: Antiinflammatory activity against DSS-induced ulcerative colitis male C57BL/6 mouse model assessed as reduction in caspase-1 level in colonic tissue at 7.5 to 30 mg/kg administered via oral gavage for 4 days by Western blot analysis; type: functional, organism-based; conditions: dose 7.5-30 mg/kg, time 4.0 day
J774.A1 [13] = experiment: Inhibition of NFkappaB signaling pathway in LPS-induced mouse J774.A1 cells assessed as reduction in IkappaBalpha phosphorylation at 3.2 uM pre-incubated with compound for 2 hrs followed by LPS-induction and measured after 5 hrs by Western blot analysis; type: cell-based; conditions: time 7.0 hrs
Mus musculus [14] = experiment: Effect on DSS-induced body weight loss in male C57BL/6 mouse model of ulcerative colitis at 7.5 to 30 mg/kg administered via oral gavage for 4 days; type: functional, organism-based; conditions: dose 7.5-30 mg/kg, time 4.0 day
[15] = molecular target: NLRP3-NEK7 (Mus musculus) (UniProt Q8R4B8+Q9ES74); experiment: Inhibition of NLRP3/NEK7 protein-protein interaction in LPS/nigericin-induced mouse J774.A1 cells incubated for 6 hrs by coimmunoprecipitation analysis; type: cell-based
Mus musculus [16] = experiment: Antiinflammatory activity against DSS-induced ulcerative colitis male C57BL/6 mouse model assessed as increase in colon length at 7.5 to 30 mg/kg administered via oral gavage for 4 days; type: functional, organism-based; conditions: dose 7.5-30 mg/kg, time 4.0 day
Mus musculus [17] = experiment: Antiinflammatory activity against DSS-induced ulcerative colitis male C57BL/6 mouse model assessed as reduction in IL-1beta level in colonic tissue at 7.5 to 30 mg/kg administered via oral gavage for 4 days by ELISA; type: functional, organism-based; conditions: dose 7.5-30 mg/kg, time 4.0 day
J774.A1 [18] = experiment: Effect on TNF-alpha secretion in LPS-induced mouse J774.A1 cells at 0.2 to 3.2 uM pre-incubated with compound for 2 hrs followed by LPS-induction and measured after 5 hrs by ELISA; type: functional, cell-based; conditions: dose 0.2-3.2 µM, time 7.0 hrs
[19] = molecular target: NACHT, LRR and PYD domains-containing protein 3 (Mus musculus) (UniProt Q8R4B8); experiment: Inhibition of NLRP3 inflammasome activation in LPS/nigericin-induced mouse J774.A1 cells assessed as reduction in LDH level […]; type: cell-based; conditions: dose 0.2-3.2 µM
[20] = molecular target: NACHT, LRR and PYD domains-containing protein 3 (Mus musculus) (UniProt Q8R4B8); experiment: Inhibition of NLRP3 inflammasome activation in LPS/nigericin-induced mouse BMDM cells assessed as reduction in IL-1beta release by ELISA; type: cell-based; conditions: dose 0.125-4 µM
[21] = molecular target: NACHT, LRR and PYD domains-containing protein 3 (Mus musculus) (UniProt Q8R4B8); experiment: Inhibition of NLRP3 inflammasome activation in LPS/nigericin-induced mouse J774.A1 cells assessed as inhibition of mature IL-1beta release at 0.2 to 3.2 uM by Western blot analysis; type: cell-based; conditions: dose 0.2-3.2 µM
[22] = molecular target: NACHT, LRR and PYD domains-containing protein 3 (Mus musculus) (UniProt Q8R4B8); experiment: Inhibition of NLRP3 inflammasome activation in LPS/nigericin-induced mouse J774.A1 cells assessed as inhibition of GSDMD cleavage at 0.2 to 3.2 uM by Western blot analysis; type: cell-based; conditions: dose 0.2-3.2 µM
Mus musculus [23] = experiment: Antiinflammatory activity against DSS-induced ulcerative colitis male C57BL/6 mouse model assessed as amelioration of mucosal ulceration in colonic tissue at 7.5 to 30 mg/kg administered via oral gavage for 4 days; type: functional, organism-based; conditions: dose 7.5-30 mg/kg, time 4.0 day
J774.A1 [24] = experiment: Effect on phosphorylated p65 level in LPS-induced mouse J774.A1 cells at 0.2 to 3.2 uM pre-incubated with compound for 2 hrs followed by LPS-induction and measured after 5 hrs by Western blot analysis; type: functional, cell-based; conditions: dose 0.2-3.2 µM, time 7.0 hrs
[25] = molecular target: NACHT, LRR and PYD domains-containing protein 3 (Mus musculus) (UniProt Q8R4B8); experiment: Inhibition of NLRP3 inflammasome activation in LPS/nigericin-induced mouse J774.A1 cells assessed as reduction in IL-1beta release by ELISA; type: cell-based; conditions: dose 0.125-4 µM
[26] = molecular target: NACHT, LRR and PYD domains-containing protein 3 (Mus musculus) (UniProt Q8R4B8); experiment: Inhibition of NLRP3 inflammasome activation in LPS/nigericin-induced mouse J774.A1 cells assessed as inhibition of caspase-1 p20 subunit formation at 0.2 to 3.2 uM by Western blot analysis; type: cell-based; conditions: dose 0.2-3.2 µM
HEK-293T = experiment: Cytotoxicity against HEK293T cells at 0.4 to 6.4 uM incubated for 24 hrs by CCK-8 assay; type: toxicity, cell-based; conditions: human, dose 0.4-6.4 µM
Mus musculus [27] = experiment: In vivo inhibition of NLRP3 in colonic tissue of DSS-induced ulcerative colitis male C57BL/6 mouse model at 7.5 to 30 mg/kg administered via oral gavage for 4 days by Western blot analysis; type: functional, organism-based; conditions: dose 7.5-30 mg/kg, time 4.0 day

Chain of NACHT, LRR and PYD domains-containing protein 3 (Q8R4B8 whole entry, the tested form may be a part): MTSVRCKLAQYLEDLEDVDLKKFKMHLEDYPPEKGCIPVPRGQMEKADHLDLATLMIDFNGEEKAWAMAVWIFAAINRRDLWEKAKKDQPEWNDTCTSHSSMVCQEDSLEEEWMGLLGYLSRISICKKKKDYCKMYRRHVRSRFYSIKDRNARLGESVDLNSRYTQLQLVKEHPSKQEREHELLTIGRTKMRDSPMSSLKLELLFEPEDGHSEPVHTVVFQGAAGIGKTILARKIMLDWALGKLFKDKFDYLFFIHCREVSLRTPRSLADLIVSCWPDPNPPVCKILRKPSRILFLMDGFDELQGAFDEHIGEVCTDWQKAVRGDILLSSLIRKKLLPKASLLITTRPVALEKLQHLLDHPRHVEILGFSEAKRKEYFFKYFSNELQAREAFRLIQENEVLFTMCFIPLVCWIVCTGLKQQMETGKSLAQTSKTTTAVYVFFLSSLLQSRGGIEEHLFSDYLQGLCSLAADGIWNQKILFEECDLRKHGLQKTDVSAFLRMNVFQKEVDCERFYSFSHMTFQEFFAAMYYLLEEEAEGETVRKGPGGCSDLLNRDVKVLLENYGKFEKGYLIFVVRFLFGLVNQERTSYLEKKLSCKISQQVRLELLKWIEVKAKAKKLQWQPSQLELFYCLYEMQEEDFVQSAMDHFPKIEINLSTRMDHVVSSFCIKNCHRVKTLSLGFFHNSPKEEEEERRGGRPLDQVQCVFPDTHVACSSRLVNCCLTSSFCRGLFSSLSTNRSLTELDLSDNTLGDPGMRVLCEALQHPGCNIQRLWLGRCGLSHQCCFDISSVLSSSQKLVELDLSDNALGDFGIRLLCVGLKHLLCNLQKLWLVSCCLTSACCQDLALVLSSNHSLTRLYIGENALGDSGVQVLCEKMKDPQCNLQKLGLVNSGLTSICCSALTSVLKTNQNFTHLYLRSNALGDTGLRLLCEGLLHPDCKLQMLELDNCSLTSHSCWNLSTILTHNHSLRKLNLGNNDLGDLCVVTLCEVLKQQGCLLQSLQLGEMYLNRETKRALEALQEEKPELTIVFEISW
Chain of NACHT, LRR and PYD domains-containing protein 3 (Mus musculus) (Q8R4B8 whole entry, the tested form may be a part): as above
Chain of Nlrp3/Pycard (Mus musculus) (Q8R4B8 whole entry, looked up, one chain of several, the tested form may be a part): as the sequence (Q8R4B8 whole entry, the tested form may be a part) above
Chain of NLRP3-NEK7 (Mus musculus) (Q8R4B8 whole entry, looked up): as the sequence (Q8R4B8 whole entry, the tested form may be a part) above
Chain of NLRP3-NEK7 (Mus musculus) (Q9ES74 whole entry, looked up): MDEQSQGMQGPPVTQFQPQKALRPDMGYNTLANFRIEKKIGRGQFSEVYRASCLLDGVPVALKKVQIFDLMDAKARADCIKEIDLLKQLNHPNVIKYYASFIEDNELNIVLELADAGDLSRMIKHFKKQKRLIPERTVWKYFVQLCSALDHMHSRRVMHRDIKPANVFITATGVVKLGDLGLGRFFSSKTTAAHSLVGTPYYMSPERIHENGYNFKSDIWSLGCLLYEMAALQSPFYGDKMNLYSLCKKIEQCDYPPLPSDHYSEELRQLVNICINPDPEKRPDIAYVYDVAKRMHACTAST

In the case of `CC[C@H](NC(=O)c1c(C)c(-c2ccc(F)cc2)nc2ccccc12)c1ccccc1`, the IC50 [1] is reported as 1.12 µM.

Compound `O=C(NCCc1ccccc1)c1cc(-c2ccccc2)nc2ccccc12` has an IC50 [1] of 70.4 µM.

With `CC[C@H](NC(=O)c1ccnc2ccccc12)c1ccccc1` the IC50 [1] was 126 µM.

`Cc1ccccc1CNC(=O)c1cc(-c2ccccc2)nc2ccccc12` was tested, and the IC50 [1] was 4.31 µM.

Compound `Cc1ccc(O)cc1NC(=O)c1cc(-c2ccccc2)nc2ccccc12` has an IC50 [1] of 7.07 µM.

With `CC[C@H](NC(=O)c1c(C)c(-c2cccc(F)c2)nc2ccc([N+](=O)[O-])cc12)c1ccccc1` the IC50 [1] was 0.94 µM.

`Cc1ccccc1NC(=O)c1cc(-c2ccccc2)nc2ccccc12` showed an IC50 [1] of 13.8 µM.

For `CC[C@H](NC(=O)c1c(C)c(-c2cccc(F)c2)nc2c([N+](=O)[O-])cccc12)c1ccccc1`, the Activity (J774.A1 [2]) was “Non-toxic”, the Activity (J774.A1 [3]) was “No effect” and the Activity (Mus musculus [4]) was “Active”. For the same compound, the inhibition [5] was “Active”, the inhibition [6] was “Active” and the Activity (Mus musculus [7]) was “Active”. The Activity (Mus musculus [8]) was “Active”, the inhibition [9] was “Active” and the IC50 [1] was 0.18 µM. The inhibition [10] was “Active”, the Activity (Mus musculus [11]) was “Active” and the Activity (Mus musculus [12]) was “Active”. The inhibition (J774.A1 [13]) was “Active; Slight Inhibitory Effect On P-Ikappabalpha”, the Activity (Mus musculus [14]) was “No effect” and the inhibition [15] was “inactive”. The Activity (Mus musculus [16]) was “Active”, the Activity (Mus musculus [17]) was “Active” and the Activity (J774.A1 [18]) was “No effect”. The inhibition [19] was “Dose-dependent-effect”, the inhibition [20] was “Dose-dependent-effect” and the inhibition [21] was “Active”. The inhibition [22] was “Active”, the Activity (Mus musculus [23]) was “Active” and the Activity (J774.A1 [24]) was “No effect”. For the same compound, the inhibition [25] was “Dose-dependent-effect”, the inhibition [26] was “Active” and the Activity (HEK-293T) was “Non-toxic”. For the same compound, the inhibition (Mus musculus [27]) was “Active”.

For `CC[C@H](NC(=O)c1c(C)c(-c2cccc(F)c2)nc2cc(Cl)ccc12)c1ccccc1`, the IC50 [1] was 0.92 µM.

`CC[C@H](NC(=O)c1c(C)c(-c2cccc(F)c2)nc2ccc(F)cc12)c1ccccc1` gave an IC50 [1] of 1.36 µM.

`CC[C@H](NC(=O)c1c(C)c(-c2cccc(F)c2)nc2c(Cl)cccc12)c1ccccc1` gave an IC50 [1] of 0.71 µM.

With `CCN(CC)CCCC(C)NC(=O)c1cc(-c2ccccc2)nc2ccccc12` (configuration not stated) the IC50 [1] was 11.4 µM.

Work on `O=C(N[C@@H]1CCc2ccccc21)c1cc(-c2ccccc2)nc2ccccc12` yielded an IC50 [1] of 7.95 µM.

Work on `CC[C@@H](NC(=O)c1cc(-c2ccccc2)nc2ccccc12)c1ccccc1` yielded an IC50 [1] of 2.08 µM.

`CCN(CC)CCCC(C)Nc1ccnc2cc(Cl)ccc12` (configuration not stated) [CHLOROQUINE] showed an IC50 [1] of 87.9 µM.

With `CC[C@H](NC(=O)c1c(C)c(-c2cccc(F)c2)nc2ccc(Cl)cc12)c1ccccc1` the IC50 [1] was 0.81 µM.

`COC(=O)[C@@H](NC(=O)c1cc(-c2ccccc2)nc2ccccc12)c1ccccc1` showed an IC50 [1] of 3 µM.

Compound `O=C(NC1CC(F)(F)C1)c1cc(-c2ccccc2)nc2ccccc12` has an IC50 [1] of 5.8 µM.

`CC[C@H](NC(=O)c1c(C)c(-c2cccc(F)c2)nc2ccccc12)c1ccccc1` was tested, and the Activity (J774.A1 [2]) was “Non-toxic”, the inhibition [5] was “Active” and the inhibition [6] was “Active”. For the same compound, the inhibition [9] was “Active”, the IC50 [1] was 0.59 µM and the inhibition [10] was “Active”. The inhibition [15] was “inactive”.
